Series [1] relates to primary rat in vitro BBB model (primary rat endothelial cells co-cultured with primary rat glial cells). The note with it: for permeability coefficient (Pe) through in vitro BBB: pH 7.4.
Protocol: The permeability of peptides was assessed using a primary rat in vitro BBB model. […] Transendothelial electrical resistance (TEER) measurements were used to measure the resistance of tight junctions in our BBB model. For our experiments, we used only inserts with the TEER value ≥320 ± 20 Ώ cm^−2 that corresponded to an intact in vitro BBB model. Alternatively, the integrity of the in vitro rat BBB model was assessed by measuring the permeability of the paracellular compound Lucifer Yellow (LY). Lucifer Yellow was added to the well with the peptides.
To test the permeability of selected peptides across in vitro BBB model, peptide transport to the abluminal compartment was quantified by ultra-high-performance liquid chromatography/mass spectrometry (UHPLC–MS/MS) method.
As a negative control, we performed the permeability experiments with N–C reversed sequence peptides: [sequence] and [sequence].
To test the effect of temperature on the transport of peptides across BBB, endothelial cells were incubated with peptides at 4°C to reduce cell metabolism which slows down endocytosis.
Briefly, 4 Sprague–Dawley rats (200–250 g, 6 months old) were euthanized, and the whole brains were removed. Under sterile conditions, the brainstem and cerebellum were dissected, and the midbrain, white matter, and choroid plexus were removed. The remaining cortical tissue was cleaned from meninges on dry Whatman paper. The tissue was homogenized on ice in DMEM-F12 (PAA laboratories GmbH, Germany). The brain homogenate was centrifuged at 800× g for 10 min at 4 °C. The supernatant was aspirated, and the pellet was resuspended in pre-warmed digestion mix containing collagenase/dispase (Roche Diagnostics, Indianapolis, IN, USA) and DNase I (Sigma–Aldrich, St. Louis, MO, USA). The tissue was incubated with a prepared digestion mix at 37 °C for 30 min with gentle shaking. Digested tissue was centrifuged at 800× g for 10 min at 4 °C, and the pellet was resuspended in 20% bovine serum albumin (BSA, Sigma–Aldrich, St. Louis, MO). The tissue was centrifuged at 1500× g for 15 min at 4 °C to obtain pellet containing microvessels with a fraction of myelin and BSA on the top, which was centrifuged again. The microvessels were pooled and resuspended in pre-warmed digestion mix and digested for 15 min at 37 °C. The microvessels pellet was again centrifuged at 800× g for 10 min at 4 °C and washed with culture medium containing the serum. The microvessels were cultured in DMEM-F12 medium (PAA Laboratories GmbH, Germany) containing 15% plasma-derived serum (PDS) (First Link, UK), 2 mM L-glutamine (GE Healthcare, UK), BME vitamins (Sigma–Aldrich, St. Louis, MO), heparin (Sigma–Aldrich, St. Louis, MO) and 3 µM puromycine (Sigma–Aldrich, St. Louis, MO). After 7 days, cells were seeded on the upper chamber (apical compartment) of Transwell insert with a 0.4 µm pore size (Becton Dickinson, New Jersey, USA) pre-coated with 10 µg/cm^2 collagen type IV (Sigma–Aldrich, St. Louis, MO) and 5 µg/cm^2 fibronectin (Sigma–Aldrich, St. Louis, MO).
Series [2] relates to primary rat in vitro BBB model. The series is described as follows: Permeability of endothelium to Lucifer Yellow (BBB integrity). Conditions: 10 µM Lucifer Yellow apical, added with the peptides; Ringer-HEPES pH 7.4; 37 °C; 5-60 min; fluorescence 428/536 nm. It counts as in vitro ADME. How it is done:
All incubations were performed at 37 °C.

Another series is described as follows: in vitro. Conditions: Sprague-Dawley, rat, pH 7.4.

Ends that are not written are not given here.

Turning to HLYLNTASTHLG, the “permeability coefficient (Pe) through in vitro BBB” value in series [1] turned out to be 7.5e-07 cm/s.
In the case of GLHTSATNLYLH, in series [1], the “permeability at 4 °C (37 °C: 100%)” value was 79%, the “permeability reduced at 4 °C” value was 20.5% and the “permeability coefficient (Pe) through in vitro BBB” value was determined as 3.3e-07 cm/s.
Consider Lucifer Yellow, for which the “endothelial permeability coefficient (Pe) of LY” value in series [2] was “around 11 × 10^−6 cm/s”.
WPVYIEGTRAAV: the Papp A→B (as a rule, the apparent permeability from the apical to the basolateral side of a cell layer) in “in vitro” is 0.5 ×10⁻⁶ cm/s.
As to VAARTGEIYVPW, the apparent permeability from apical to basolateral (Papp A→B) in the series “in vitro” turned out to be 1.5 ×10⁻⁶ cm/s. In series [1], the “permeability at 4 °C (37 °C: 100%)” value is listed as 69% and the “permeability reduced at 4 °C” value was 30.5%.
